Values quoted from earlier work, collected in US5859021A, “Antiviral combinations” (priority 1991, dated 1999).

What was measured:
[1] = versus (+) enantiomer
patients with AIDS = conditions: for toxicity in patients: AIDS patients, AZT: long-term therapy
[2] = tested on: normal human bone marrow progenitor cells; conditions: combination with high-dose AZT, antiviral activity not affected

**Q.** With Nc1ccn([C@@H]2CS[C@H](CO)O2)c(=O)n1 (racemic) [compound of formula (I), (±)-(cis)-4-Amino-1-(2-hydroxymethyl-1,3-oxathiolan-5-yl)-(1H)-pyrimidin-2-one] as the molecule, how does the “antiviral activity against HIV” value (HIV) read?
**A.** Its value is “having antiviral activity”.

**Q.** For Nc1ccn([C@@H]2CS[C@H](CO)O2)c(=O)n1 [3TC], which “cytotoxicity compared with the (+) enantiomer” value [1] is on record?
**A.** Its value is “considerably lower cytotoxicity than the (+) enantiomer”.

**Q.** What does the source list for Cc1cn([C@H]2C[C@H](N=[N+]=[N-])[C@@H](CO)O2)c(=O)[nH]c1=O [AZT, 3'-azido-3'-deoxythymidine]?
**A.** toxicity in patients (patients with AIDS): bone-marrow toxicity; appearance of resistant HIV-1 variants (patients with AIDS; long-term AZT therapy): appearance of AZT-resistant variants of HIV-1; morbidity and mortality (patients with AIDS; patients with AIDS): reduces morbidity and mortality; inhibition of HIV replication in vitro (HIV; in vitro): inhibit HIV replication in vitro; antiviral activity in combination (HIV; in vitro, with recombinant soluble CD4, castanospermine and recombinant interferon alpha): synergistic antiviral activity

**Q.** For Nc1ccn([C@H]2CC[C@@H](CO)O2)c(=O)n1 [ddC, 2',3'-dideoxycytidine], which toxicity in patients (patients with AIDS) is on record?
**A.** The toxicity in patients was “peripheral neurophathy”.

**Q.** And the “effect on bone marrow cytotoxicity of high-dose AZT” value [2]?
**A.** The value was “eliminates the bone marrow cytotoxicity of high-dose AZT”.

**Q.** What about the “antiviral activity of AZT in combination with ddC” value (HIV) of the same molecule?
**A.** The value was “without affecting its antiviral activity”.

**Q.** And the “inhibition of HIV replication in vitro” value (HIV; in vitro)?
**A.** The value was “inhibit HIV replication in vitro”.

**Q.** For OC[C@@H]1CC[C@H](n2cnc3c(O)ncnc32)O1 [ddI, 2',3'-dideoxyinosine], which toxicity in patients (patients with AIDS) is on record?
**A.** Its toxicity in patients is “pancreatitis and peripheral neuropathy”.

**Q.** And the “inhibition of HIV replication in vitro” value (HIV; in vitro)?
**A.** Its value is “inhibit HIV replication in vitro”.
